# System: HEK293T cells
# Experiment: Nuclear-cytoplasmic localization of dCas9-Tet1 constructs with or without gRNA
# Format: cell-based
# Details: for induction index (nuclear-cytoplasmic ratio with sgRNA normalized to that without sgRNA): HEK293T cells
# Description: FIGS. 8A-8E depict a modified CRISPR system for editing 5-cytosine DNA methylation in the mammalian genome. FIG. 8A depicts design of dCas9-effector constructs with nuclear localization signal (NLS) located at different positions, and guide RNA (gRNA) or enhanced guide RNA (E-gRNA) with CMV-driven puro-T2A-Cherry cassette. Ub: human Ubiquitin C promoter. […] FIG. 8C provides comparison of the cellular localization of dCas9-NLS-Tet1 and NLS-dCas9-NLS-Tet1 in HEK293T cells with or without co-expression of a gRNA or E-gNRA targeting the same position in the MyoD locus. […] Co-expression of either gRNA or E-gRNA induced cytoplasm-to-nucleus translocation of these two proteins. Stained in green for dCas9, red for Cherry and blue for DAPI in the merged images. The red dashed lines in the first two panels indicate the cross section of the images for GFP intensity quantification. Scale bar: 10 um. FIG. 8D provides quantification of the nuclear-cytoplasmic ratio of dCas9-NLS-Tet1 and NLS-dCas9-NLS-Tet1 in HEK293T cells in the absence or presence of a gRNA, or an E-gNRA in a Box and Whiskers plot. Average dCas9 intensity of cytoplasmic and nuclear domain along a cross-sectional line as illustrated in C was used for the quantification. “+” denotes mean value of the 20 data points in each group; the boxes indicate the extreme data points (top and bottom bars), the 25-75% interval (box), and the median (central line). […] We reasoned that the combination with the highest induction index would result in the best signal-to-noise ratio for targeted DNA methylation editing.
# To achieve targeted editing of DNA methylation, we fused dCas9 with enzymes in the methylation/demethylation pathway (FIG. 1A). […] Both gRNA constructs contain a puro selection cassette and a Cherry fluorescence protein cassette driven by an independent CMV promoter that allows for Fluorescence Activated Cell Sorting (FACS) of gRNA-expressing cells after lentiviral transduction (FIG. 8A). […]
substance,measurement,setting,value
"dCas9-Tet1: catalytically inactive Cas9 (dCas9) fused through NLS to the Tet1 catalytic domain, SEQ ID NO: 159; lentivirally expressed with gRNAs",induction index (nuclear-cytoplasmic ratio with sgRNA normalized to that without sgRNA),co-expression of E-gRNA targeting the MyoD locus,3.22 folds
same,induction index (nuclear-cytoplasmic ratio with sgRNA normalized to that without sgRNA),co-expression of gRNA targeting the MyoD locus,3.17 folds
same,cellular localization,"in the absence of sgRNAs, transfected HEK293T cells",predominantly excluded from the nuclear compartment
